These results are taken from ChEMBL document CHEMBL1201862, “PubChem BioAssay data set” (2004).

The test system of one experiment is HeLa. Kind of experiment: HeLa cell cytotoxicity, dose response, cytotoxicity control for MITF activator project, CellTiter-Glo luminescence, cherry-pick samples (AID 540259). Particulars: Homo sapiens. It is filed as functional, cell-based. On the technique in general: Cellular ATP, detected with luciferase, serves as a proxy for viable cell number.
Experiment [1] can be described thus: Luminescence Cell-Based Dose Retest to Confirm Inhibitors of Cancer Stem Cells. [Related pubchem assays (depositor defined):AID2717, AID2721]. It is filed as functional. Particulars: Homo sapiens.
Experiment [2] is described as follows: cytotoxicity in HMLE control line with eGFP shRNA, dose response, counter-screen for HMLE_sh_ECad selective toxicity project, cell-based, HMLE_sh_eGFP, luminescence (AID 463074).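 Note: HMLE human mammary epithelial cells expressing control shRNA against eGFP.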 Type of experiment: functional, Homo sapiens. Background: A counterscreen serves to expose hits that act by an unwanted route or on another target.
Another experiment has as its system H9c2. Kind of experiment: cells. Type of experiment: functional, cell-based. As to conditions: Rattus norvegicus, H9c2, Myocardium.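 Note: confirmatory concentration-response retest of ultra-high-throughput screening hits for modulation of myocardial damage; cell death induced by hydrogen peroxide oxidative stress; compound pretreatment for 60 min then peroxide exposure for 2 h; potency is for protecting the cells against peroxide damage rather than for killing them.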
For experiment [3], the target named is Beta-2 adrenergic receptor (Homo sapiens, UniProt P07550). Kind of experiment: beta2AR agonists driving receptor internalization, dose response, cell-based, FAP fluorogen, flow cytometry, cherry pick 1 (AID 588763). Type of experiment: functional. A general note: A flow cytometer gives signals particle by particle.
Chain of Beta-2 adrenergic receptor (P07550 whole entry): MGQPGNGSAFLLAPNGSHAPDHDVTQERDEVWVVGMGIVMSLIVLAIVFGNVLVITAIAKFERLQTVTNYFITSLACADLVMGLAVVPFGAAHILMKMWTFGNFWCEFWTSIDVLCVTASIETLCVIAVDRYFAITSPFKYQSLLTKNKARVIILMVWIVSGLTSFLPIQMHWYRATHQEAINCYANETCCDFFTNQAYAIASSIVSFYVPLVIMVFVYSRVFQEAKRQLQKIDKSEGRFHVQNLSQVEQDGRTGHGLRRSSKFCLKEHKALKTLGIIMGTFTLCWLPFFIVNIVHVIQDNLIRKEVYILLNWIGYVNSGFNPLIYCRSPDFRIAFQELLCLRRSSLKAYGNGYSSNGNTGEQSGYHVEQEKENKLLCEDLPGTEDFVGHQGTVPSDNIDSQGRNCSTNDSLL
For another experiment, the target named is T1, Hexokinase-1 (Homo sapiens, UniProt P19367).
T1 sequence (P19367 whole entry): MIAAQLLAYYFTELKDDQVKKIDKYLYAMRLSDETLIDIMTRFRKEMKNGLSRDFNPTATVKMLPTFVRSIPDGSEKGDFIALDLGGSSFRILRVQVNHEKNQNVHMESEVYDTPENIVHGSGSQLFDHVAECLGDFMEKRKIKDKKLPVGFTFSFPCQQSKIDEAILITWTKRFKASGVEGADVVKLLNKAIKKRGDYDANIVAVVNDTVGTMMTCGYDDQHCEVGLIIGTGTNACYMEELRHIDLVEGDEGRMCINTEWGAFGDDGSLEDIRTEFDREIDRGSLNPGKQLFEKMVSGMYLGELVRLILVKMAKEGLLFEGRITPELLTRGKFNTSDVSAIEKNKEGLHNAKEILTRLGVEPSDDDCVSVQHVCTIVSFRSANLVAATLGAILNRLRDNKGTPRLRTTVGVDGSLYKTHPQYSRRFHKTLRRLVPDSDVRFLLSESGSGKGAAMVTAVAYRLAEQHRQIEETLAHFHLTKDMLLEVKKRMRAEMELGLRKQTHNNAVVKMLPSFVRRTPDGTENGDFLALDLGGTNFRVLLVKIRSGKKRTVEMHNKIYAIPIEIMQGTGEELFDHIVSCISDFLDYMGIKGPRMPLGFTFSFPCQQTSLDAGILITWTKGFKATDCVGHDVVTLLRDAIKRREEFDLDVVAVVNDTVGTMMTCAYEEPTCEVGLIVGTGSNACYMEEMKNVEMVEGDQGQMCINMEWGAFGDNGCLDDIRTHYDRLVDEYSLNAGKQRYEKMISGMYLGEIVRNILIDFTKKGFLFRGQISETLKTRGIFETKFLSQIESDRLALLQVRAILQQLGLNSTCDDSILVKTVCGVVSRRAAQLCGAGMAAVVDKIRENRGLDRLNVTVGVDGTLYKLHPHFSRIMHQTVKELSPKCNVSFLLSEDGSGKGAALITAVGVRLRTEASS
As to the kind of experiment: SAR analysis of small molecule inhibitors of hexokinase domain containing I (HKDC1) in the hexokinase 1 selectivity assay. [Related pubchem assays (depositor defined):AID493160, AID493190]. Type of experiment: functional.

A further experiment concerns the target T2, Hexokinase HKDC1 (Homo sapiens, UniProt Q2TB90).
T2 sequence (Q2TB90 whole entry): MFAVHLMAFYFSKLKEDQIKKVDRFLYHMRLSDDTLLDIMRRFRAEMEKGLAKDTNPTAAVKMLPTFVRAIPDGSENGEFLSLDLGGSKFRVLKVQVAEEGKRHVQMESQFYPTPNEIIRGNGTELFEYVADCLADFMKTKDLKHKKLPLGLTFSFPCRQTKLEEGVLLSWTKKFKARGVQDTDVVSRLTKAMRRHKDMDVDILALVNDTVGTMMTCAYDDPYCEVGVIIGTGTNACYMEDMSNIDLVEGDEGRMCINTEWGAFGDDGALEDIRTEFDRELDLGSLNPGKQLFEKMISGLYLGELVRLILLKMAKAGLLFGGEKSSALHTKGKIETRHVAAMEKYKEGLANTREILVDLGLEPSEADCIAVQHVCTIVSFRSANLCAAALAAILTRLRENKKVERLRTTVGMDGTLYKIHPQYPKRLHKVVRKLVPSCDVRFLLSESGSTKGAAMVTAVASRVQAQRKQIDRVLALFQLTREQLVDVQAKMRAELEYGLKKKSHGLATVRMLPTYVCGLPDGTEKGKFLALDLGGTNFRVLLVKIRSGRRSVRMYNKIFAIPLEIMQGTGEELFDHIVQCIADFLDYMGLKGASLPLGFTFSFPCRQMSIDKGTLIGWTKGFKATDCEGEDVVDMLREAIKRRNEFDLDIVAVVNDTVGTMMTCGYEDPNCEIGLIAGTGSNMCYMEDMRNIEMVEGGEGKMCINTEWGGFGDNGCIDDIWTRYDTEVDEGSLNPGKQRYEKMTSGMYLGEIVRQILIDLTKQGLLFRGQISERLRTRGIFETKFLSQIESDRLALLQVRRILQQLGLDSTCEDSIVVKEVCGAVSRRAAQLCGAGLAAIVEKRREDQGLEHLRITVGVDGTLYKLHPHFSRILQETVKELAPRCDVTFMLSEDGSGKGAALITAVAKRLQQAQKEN
Kind of experiment: SAR analysis of small molecule inhibitors of hexokinase domain containing I (HKDC1). [Related pubchem assays (depositor defined):AID493160, AID493190]. It is filed as functional.

Experiment [4] concerns the target Potassium voltage-gated channel subfamily KQT member 2 (Rattus norvegicus, UniProt O88943). As to the kind of experiment: Mode of action assay-Dose response assay for compounds that activate KCNQ2 potassium channels on automated patch clamp. [Related pubchem assays (depositor defined):AID2239, AID2258, AID2287, AID493113]. Type of experiment: functional.
Experiment [5] deals with T3, Potassium voltage-gated channel subfamily KQT member 4 (Homo sapiens, UniProt P56696). Kind of experiment: human KCNQ4 channel current potentiation, dose response, selectivity assay for KCNQ2 activator project, automated patch clamp, CHO cells (AID 493043). Type of experiment: functional, cell-based.
T3 sequence (P56696 whole entry): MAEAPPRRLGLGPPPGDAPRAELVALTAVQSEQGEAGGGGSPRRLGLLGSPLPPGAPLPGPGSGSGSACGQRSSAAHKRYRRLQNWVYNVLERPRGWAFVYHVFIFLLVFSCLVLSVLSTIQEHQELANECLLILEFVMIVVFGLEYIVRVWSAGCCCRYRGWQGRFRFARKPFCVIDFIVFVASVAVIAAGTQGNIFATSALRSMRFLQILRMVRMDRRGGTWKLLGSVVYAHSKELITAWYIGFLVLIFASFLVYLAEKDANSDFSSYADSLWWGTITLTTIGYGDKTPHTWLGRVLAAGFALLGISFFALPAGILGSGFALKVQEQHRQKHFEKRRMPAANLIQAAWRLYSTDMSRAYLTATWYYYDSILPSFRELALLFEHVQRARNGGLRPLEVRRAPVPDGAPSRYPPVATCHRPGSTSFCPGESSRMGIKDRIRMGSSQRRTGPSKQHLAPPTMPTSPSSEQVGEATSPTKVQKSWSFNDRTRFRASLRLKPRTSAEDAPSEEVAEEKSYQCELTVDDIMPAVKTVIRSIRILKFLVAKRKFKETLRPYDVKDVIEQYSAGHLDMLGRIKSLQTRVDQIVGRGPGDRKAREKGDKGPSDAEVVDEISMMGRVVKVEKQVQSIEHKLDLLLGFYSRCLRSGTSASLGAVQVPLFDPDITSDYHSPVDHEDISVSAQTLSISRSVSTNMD
Experiment [6] addresses Potassium voltage-gated channel subfamily KQT member 2/member 3 (Rattus norvegicus, UniProt O88943+O88944). As to the kind of experiment: Mode of action assay-Dose response assay for KCNQ2 activators in the KCNQ2/KCNQ3 co-expressing cells on automated patch clamp. [Related pubchem assays (depositor defined):AID2239, AID2258, AID2287]. Type of experiment: functional.
Experiment [7] deals with T3, Potassium voltage-gated channel subfamily KQT member 4. As to the kind of experiment: KCNQ4 channel modulation, potentiation or inhibition, dose response, selectivity assay for KCNQ2 activator project, thallium flux, KCNQ4-expressing cells (AID 504416). Type of experiment: functional, cell-based.
Another experiment deals with T4, ORF 73 (Human herpesvirus 8, UniProt O40947).
T4 sequence (O40947 whole entry): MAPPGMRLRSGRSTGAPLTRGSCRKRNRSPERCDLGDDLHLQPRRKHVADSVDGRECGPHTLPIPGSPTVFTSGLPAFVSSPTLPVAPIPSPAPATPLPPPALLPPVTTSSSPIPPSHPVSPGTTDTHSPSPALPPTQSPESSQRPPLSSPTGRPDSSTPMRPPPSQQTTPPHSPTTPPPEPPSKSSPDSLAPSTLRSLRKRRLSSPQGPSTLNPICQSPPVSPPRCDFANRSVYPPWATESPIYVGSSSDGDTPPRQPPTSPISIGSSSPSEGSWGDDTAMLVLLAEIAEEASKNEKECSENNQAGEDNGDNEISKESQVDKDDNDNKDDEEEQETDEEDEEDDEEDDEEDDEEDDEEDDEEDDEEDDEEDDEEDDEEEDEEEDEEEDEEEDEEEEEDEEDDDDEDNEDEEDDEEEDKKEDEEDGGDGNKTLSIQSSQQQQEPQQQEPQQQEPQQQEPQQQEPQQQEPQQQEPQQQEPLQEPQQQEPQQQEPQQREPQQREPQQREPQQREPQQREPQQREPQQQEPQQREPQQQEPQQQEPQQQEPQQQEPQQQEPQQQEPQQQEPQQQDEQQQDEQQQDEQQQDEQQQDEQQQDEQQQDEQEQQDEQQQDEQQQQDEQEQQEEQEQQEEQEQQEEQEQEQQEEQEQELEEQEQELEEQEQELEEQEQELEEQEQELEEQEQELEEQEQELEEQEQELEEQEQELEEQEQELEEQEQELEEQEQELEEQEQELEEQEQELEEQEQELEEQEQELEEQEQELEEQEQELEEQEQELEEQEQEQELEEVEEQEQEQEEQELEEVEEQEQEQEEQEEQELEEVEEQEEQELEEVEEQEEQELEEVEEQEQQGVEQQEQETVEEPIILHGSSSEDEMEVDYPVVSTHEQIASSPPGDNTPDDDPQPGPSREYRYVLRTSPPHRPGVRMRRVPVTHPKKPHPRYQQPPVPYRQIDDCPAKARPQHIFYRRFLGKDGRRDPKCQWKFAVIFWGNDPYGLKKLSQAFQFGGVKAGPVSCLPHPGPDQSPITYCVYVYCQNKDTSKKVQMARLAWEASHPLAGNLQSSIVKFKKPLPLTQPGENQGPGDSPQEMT
As to the kind of experiment: inhibitors of C-LANA binding to LBS DNA, dose response, biochemical, fluorescence polarization, cherry-picked samples (AID 504725).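 Note: fluorescence polarization of a labeled DNA duplex reporting LANA DNA binding; potency is for inhibitors that block LANA binding to the DNA.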 Details: species or system Human gammaherpesvirus 8.

Another experiment has as its target Keap1/Nrf2 (Homo sapiens, UniProt Q14145). Kind of experiment: Keap1-Nrf2 protein-protein interaction inhibitors, dose response, biochemical, fluorescence polarization, cherry-picked samples (AID 588683).
Another experiment deals with Beta-arrestin-1 (Homo sapiens, UniProt P49407). As to the kind of experiment: inhibitors of arrestin peptide binding to AP2, dose response, biochemical, cherry pick 1, beta2-adaptin appendage, flow cytometry (AID 588783). Type of experiment: functional.
Chain of Beta-arrestin-1 (P49407 whole entry): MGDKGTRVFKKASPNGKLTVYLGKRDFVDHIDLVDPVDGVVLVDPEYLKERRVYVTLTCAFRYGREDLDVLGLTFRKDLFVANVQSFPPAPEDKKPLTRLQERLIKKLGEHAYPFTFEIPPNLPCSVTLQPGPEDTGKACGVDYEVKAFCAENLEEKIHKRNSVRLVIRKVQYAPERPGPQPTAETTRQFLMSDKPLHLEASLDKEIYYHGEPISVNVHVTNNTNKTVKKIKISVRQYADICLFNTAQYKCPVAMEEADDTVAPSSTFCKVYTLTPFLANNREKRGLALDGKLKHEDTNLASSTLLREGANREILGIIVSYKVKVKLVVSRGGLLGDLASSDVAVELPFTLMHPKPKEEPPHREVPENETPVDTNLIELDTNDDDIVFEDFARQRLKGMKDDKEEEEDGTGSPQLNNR

Active and inactive are the calls of the source. Unless noted, no cut-off for these calls is given here.

Chain of Keap1/Nrf2 (Q16236 whole entry): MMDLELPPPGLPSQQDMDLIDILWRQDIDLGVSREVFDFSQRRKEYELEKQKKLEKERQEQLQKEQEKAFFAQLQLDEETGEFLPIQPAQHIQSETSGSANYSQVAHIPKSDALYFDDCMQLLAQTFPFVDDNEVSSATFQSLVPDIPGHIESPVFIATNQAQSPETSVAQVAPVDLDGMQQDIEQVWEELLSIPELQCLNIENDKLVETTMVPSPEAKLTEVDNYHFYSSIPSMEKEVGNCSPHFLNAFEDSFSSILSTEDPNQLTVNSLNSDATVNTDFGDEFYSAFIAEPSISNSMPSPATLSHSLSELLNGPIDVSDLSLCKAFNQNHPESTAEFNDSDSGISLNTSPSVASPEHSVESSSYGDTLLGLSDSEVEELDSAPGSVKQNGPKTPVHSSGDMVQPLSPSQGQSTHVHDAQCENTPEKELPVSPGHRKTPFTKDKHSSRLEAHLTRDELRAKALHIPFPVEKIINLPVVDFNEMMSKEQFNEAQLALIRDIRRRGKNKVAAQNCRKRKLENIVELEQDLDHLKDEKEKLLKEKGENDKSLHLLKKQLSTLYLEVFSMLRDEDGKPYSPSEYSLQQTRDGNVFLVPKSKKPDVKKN
Chain of Keap1/Nrf2 (Q14145 whole entry): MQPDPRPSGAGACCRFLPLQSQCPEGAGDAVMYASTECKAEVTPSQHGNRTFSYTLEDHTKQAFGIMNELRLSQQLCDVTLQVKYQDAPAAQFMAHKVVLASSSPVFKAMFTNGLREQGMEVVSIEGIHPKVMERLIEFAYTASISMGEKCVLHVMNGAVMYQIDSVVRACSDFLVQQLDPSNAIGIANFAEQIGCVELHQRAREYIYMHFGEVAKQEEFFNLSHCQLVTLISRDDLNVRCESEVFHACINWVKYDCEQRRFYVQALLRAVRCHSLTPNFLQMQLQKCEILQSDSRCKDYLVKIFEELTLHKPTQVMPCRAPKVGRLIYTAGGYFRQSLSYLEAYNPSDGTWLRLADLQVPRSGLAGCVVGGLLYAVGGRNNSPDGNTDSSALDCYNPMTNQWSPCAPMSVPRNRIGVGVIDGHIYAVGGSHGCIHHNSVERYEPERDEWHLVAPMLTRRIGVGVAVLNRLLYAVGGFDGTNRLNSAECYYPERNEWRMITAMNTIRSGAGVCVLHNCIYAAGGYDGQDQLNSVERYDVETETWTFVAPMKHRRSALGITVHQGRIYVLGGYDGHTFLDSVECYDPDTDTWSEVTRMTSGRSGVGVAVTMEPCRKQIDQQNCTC
Chain of Potassium voltage-gated channel subfamily KQT member 2/member 3 (O88943 whole entry): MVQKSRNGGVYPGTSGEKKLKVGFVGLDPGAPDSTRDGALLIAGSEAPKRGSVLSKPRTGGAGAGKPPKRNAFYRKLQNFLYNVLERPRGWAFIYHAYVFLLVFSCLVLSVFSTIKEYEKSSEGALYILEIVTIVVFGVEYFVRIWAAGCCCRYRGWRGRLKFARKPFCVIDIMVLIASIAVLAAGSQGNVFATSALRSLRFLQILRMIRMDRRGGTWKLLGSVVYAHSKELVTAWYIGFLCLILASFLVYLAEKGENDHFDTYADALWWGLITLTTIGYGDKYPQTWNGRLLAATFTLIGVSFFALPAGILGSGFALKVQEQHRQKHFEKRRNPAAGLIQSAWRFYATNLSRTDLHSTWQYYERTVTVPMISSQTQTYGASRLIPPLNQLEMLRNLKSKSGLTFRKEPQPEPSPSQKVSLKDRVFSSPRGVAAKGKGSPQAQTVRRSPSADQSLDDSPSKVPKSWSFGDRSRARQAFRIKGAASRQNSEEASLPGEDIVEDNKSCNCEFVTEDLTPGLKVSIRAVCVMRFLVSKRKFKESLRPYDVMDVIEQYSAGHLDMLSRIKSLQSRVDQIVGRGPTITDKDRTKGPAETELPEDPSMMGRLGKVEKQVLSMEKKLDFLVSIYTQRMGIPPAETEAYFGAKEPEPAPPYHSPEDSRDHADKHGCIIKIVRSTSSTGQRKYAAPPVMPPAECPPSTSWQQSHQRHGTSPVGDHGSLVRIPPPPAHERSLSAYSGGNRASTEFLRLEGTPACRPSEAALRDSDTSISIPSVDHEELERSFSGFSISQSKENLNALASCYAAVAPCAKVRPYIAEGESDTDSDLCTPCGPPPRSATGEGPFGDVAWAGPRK
Chain of Potassium voltage-gated channel subfamily KQT member 2/member 3 (O88944 whole entry): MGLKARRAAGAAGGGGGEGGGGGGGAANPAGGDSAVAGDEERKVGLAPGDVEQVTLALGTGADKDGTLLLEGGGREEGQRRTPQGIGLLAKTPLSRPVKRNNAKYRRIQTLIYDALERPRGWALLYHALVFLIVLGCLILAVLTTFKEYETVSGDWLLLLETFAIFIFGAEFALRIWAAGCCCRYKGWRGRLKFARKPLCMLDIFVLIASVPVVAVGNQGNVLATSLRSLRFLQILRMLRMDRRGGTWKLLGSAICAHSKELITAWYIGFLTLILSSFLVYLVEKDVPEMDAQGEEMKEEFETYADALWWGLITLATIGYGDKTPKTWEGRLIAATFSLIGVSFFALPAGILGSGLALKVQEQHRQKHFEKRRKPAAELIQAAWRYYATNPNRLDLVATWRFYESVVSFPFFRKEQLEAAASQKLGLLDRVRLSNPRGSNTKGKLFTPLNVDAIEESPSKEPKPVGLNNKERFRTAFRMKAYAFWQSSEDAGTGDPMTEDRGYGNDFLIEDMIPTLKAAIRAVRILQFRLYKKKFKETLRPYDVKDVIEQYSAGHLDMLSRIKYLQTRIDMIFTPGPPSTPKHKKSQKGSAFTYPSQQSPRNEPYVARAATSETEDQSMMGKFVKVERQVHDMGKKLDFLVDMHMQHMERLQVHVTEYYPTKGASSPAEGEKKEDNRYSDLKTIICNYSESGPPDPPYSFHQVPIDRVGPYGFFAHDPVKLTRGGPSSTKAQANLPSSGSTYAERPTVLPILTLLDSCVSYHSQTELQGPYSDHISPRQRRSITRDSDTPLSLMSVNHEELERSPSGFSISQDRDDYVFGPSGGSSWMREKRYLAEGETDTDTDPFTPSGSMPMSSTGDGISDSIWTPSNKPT
Chain of Potassium voltage-gated channel subfamily KQT member 2 (O88943 whole entry): as the sequence (O88943 whole entry) above

Usually AC50 stands for the concentration at which the activity in the assay is half-maximal. For `O=C(c1cccs1)N1CCn2c1nc1ccccc12`, in the experiment on HeLa, the AC50 was 115 µM (active).
Consider `O=C(CSc1nc(-c2ccco2)cc(C(F)(F)F)n1)Nc1ccccc1C(F)(F)F`, for which the AC50 is 5.71 µM (active) in experiment [1] and 23.1 µM (active) in [2].
Broadly, the IC50 is the concentration at which inhibition is half-maximal. As a reminder, the EC50 is the concentration at which the effect is half-maximal. On to `CC(=O)Nc1ccc(S(=O)(=O)N(Cc2ccco2)Cc2cc3ccccc3nc2O)cc1`, for which, in the experiment on H9c2, the IC50 was > 79 µM (inactive). In experiment [3], the EC50 is 0.00464 µM (active).
With `O=c1c2ccccc2nc(/C=C/c2cccnc2)n1Cc1cccc(F)c1`, the IC50 on Hexokinase-1 and on Hexokinase HKDC1 was > 80 µM (inactive) each time.
With `Cc1cc(C)c(NC(=O)CC(C)(C)C)c(Cl)c1`, the EC50 was 0.867 µM (active) in experiment [4], 15.3 µM (active) in [5], 0.625 µM (active) in experiment [6] and 8.78 µM (active) in experiment [7].
As to `Fc1ccc(C2=CC(c3ccc(Br)o3)n3ncnc3N2)cc1` (centres undefined), the AC50 on ORF 73 was 10.8 µM (active); at Keap1/Nrf2, 24 µM (active).
As for `Cc1ccc(C2Nc3cccc4cccc(c34)N2)s1`, on Beta-arrestin-1, the IC50 was 15.3 µM (inactive).
